One experiment deals with T1, TRAF2-GSTP1-1 complex (Homo sapiens, UniProt P09211).
T1 construct: made in house; host or cells: E. coli Top 10 (GSTP1-1); E. coli BL21 (DE3) (TRAF2)
Put plainly: ELISA for TRAF2-GSTP1-1 protein-protein interaction. The class given is binding. The note with it: 20 µM compound, pH 7.0. As for the experimental part:
The formation of the TRAF2-GSTP1-1 complex was studied as previously described. Briefly, 200 µL of His-tagged TRAF2 C-terminal domain (0.005 µM in 20 mM Tris–HCl, pH 7.6, containing 150 mM NaCl and 10% glycerol) were added to each well of a 96-well His-Sorb plate (Qiagen, Hilden, Germany) and incubated overnight, at 4 °C, on a rocking platform. Afterwards, wells were washed with PBS and incubated for 30 min with GSTP1-1 (concentration range from 0.1 to 2 µM) in 10 mM potassium phosphate buffer, pH 7.0, containing 0.1 mM EDTA. Incubation with GSTP1-1 was also performed in the presence of 1 (20 µM), 3 (20 µM) or 4 (20 µM), both in the absence and presence of GSH (1 mM). At the end of incubation, the wells were washed with PBS and then filled with 200 µL of a mouse anti-GSTP1-1 antibody (Cell Signalling, Beverly, MA, USA; 1:1000 in TBS containing 0.1% Tween and 5% non-fat dry milk) for 2 h at room temperature. Subsequently, wells were washed with PBS and incubated with an antimouse IgG antibody (Cell Signalling; 1:1000 in TBS containing 0.1% Tween and 5% non-fat dry milk) for 45 min at room temperature. The immunocomplexes were detected by the addiction of 200 µL/well of the 1-Step-Turbo TMB substrate solution (Pierce, Rockford, IL, USA). The reaction was stopped after 10 min by the addition of 50 µL of 2M H2SO4, and the absorbance was measured at 450 nm. Data were analysed by fitting to Equation (1) where ν is the percentage of the saturated binding sites of TRAF2; [P]t and [L]t are the total concentrations of monomeric GSTP1-1 and TRAF2, respectively.
For orientation: ELISA stands for enzyme-linked immunosorbent assay.

The target of experiment [1] is T2, human GSTP1-1 (Homo sapiens, UniProt P09211).
T2 construct: made in house; host or cells: E. coli Top 10
T2 sequence (P09211 2-210 limits assumed): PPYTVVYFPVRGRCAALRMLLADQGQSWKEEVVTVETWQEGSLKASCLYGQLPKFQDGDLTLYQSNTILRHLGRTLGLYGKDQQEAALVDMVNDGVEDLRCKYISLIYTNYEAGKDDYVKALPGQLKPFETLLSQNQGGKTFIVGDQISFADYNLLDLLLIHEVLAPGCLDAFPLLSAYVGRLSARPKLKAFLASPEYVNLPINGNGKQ
Description: GSTP1-1 catalytic activity inhibition (CDNB-GSH conjugation, spectrophotometric). The class given is biochemical. Conditions: detergent-free buffer. As to the method: The enzymatic activity of GSTP1-1 (20 nM subunits) was spectrophotometrically assayed at 340 nm (ε = 9,600 M^−1 cm^−1) and at 25 °C, by measuring the rate of 1-cloro-2,4-dinitrobenzene (CDNB) conjugation with GSH as a function of time[20]. The assay mixture contained 1 mM GSH and 1 mM CDNB in 1 mL of buffer B (0.1 M potassium phosphate buffer, pH 6.5 containing 0.1 mM EDTA).

Experiment [2] deals with T2, human GSTP1-1. The note with it: 1 mM GSH, 1 mM CDNB, pH 6.5, 25 °C; read-out: GSTP1-1 inhibition assay IC50; cited from earlier work.

Read-outs that look alike come from different tables or passages of the source.

T1 sequence (P09211 2-210 limits assumed, one chain of several): as the sequence (P09211 2-210 limits assumed) above

In the case of `O=[N+]([O-])c1ccc(SCCCCCCO)c2nonc12` [Compound 1, 6-((7-nitrobenzo[c][1,2,5]oxadiazol-4-yl)thio)hexan-1-ol, reference compound], on TRAF2-GSTP1-1 complex (presence of GSH (1 mM)), the “Effect on TRAF2-GSTP1-1 complex formation” value was “overlaps those obtained with 3 and 4”.
Usually IC50 stands for the midpoint of a concentration-inhibition curve. For the molecule `O=C(OCCCCCCSc1ccc([N+](=O)[O-])c2nonc12)c1ccccc1` [Compound 3, 6-((7-nitrobenzo[c][1,2,5]oxadiazol-4-yl)thio)hexyl benzoate, reference compound], the “Maximal inhibition of GSTP1-1 conjugation activity” value at human GSTP1-1 [1] (0.01-20 µM compound) is on record as “no more than 50%”. Moreover, the IC50 at human GSTP1-1 [2] is 600 ± 300 nM.
On human GSTP1-1 [1] (1 mM GSH, 1 mM CDNB, pH 6.5, 25 °C), `O=C(NCCCCCCSc1ccc([N+](=O)[O-])c2nonc12)c1ccccc1` [Compound 4, N-(6-((7-nitrobenzo[c][1,2,5]oxadiazol-4-yl)thio)hexyl)benzamide] had an IC50 of 700 ± 100 nM. Moreover, on human GSTP1-1 [1] (1 mM GSH, 1 mM CDNB, pH 6.5, 25 °C, read-out: Ki app (GSTP1-1 enzyme activity)), the Ki came out at 700 ± 100 nM. Further, the “Extent of inhibition of GSTP1-1 enzyme activity” value at human GSTP1-1 [1] (0.01-20 µM compound) is reported as “completely inhibited”. Further, the “Effect on TRAF2-GSTP1-1 complex formation” value at TRAF2-GSTP1-1 complex (absence of GSH) and at TRAF2-GSTP1-1 complex (presence of GSH (1 mM)) was “inhibited TRAF2-GST-P1-1 complex formation” each time.

(Values after paper PMC6566875, “Synthesis and characterisation of a new benzamide-containing nitrobenzoxadiazole as a GSTP1-1 inhibitor endowed with high stability to metabolic hydrolysis” (Journal of Enzyme Inhibition and Medicinal Chemistry, 2019).)
